The values below come from ChEMBL document CHEMBL3351251, “3-Arylcoumarins: synthesis and potent anti-inflammatory activity” (Bioorg Med Chem Lett, 2014).

A short description of data set [1]: Cytotoxicity against LPS-stimulated mouse RAW264.7 cells assessed as cell viability at 5 mg/L incubated for 24 hrs by alamar blue assay. Format: cell-based. Particulars: LPS-stimulated RAW264.7 cells, read-out: Activity.
The test system of data set [2] is RAW264.7. Description: Anti-inflammatory activity in mouse RAW264.7 cells assessed as inhibition of LPS-induced nitric oxide production at 5 mg/L pre-incubated for 2 hrs before LPS stimulation for 24 hrs. Format: functional.
For data set [3], the system named is RAW264.7. The data set can be described thus: Anti-inflammatory activity in mouse RAW264.7 cells assessed as inhibition of LPS-induced nitric oxide production pre-incubated for 2 hrs before LPS stimulation for 24 hrs. Format: functional, cell-based.

A word on the inhibition: it is the relative decrease from the control value, in per cent. Turning to `COc1cc(-c2cc3cc(Cl)ccc3oc2=O)cc(OC)c1OC`, in data set [1], the viability at 24 h, 5 mg/L turned out to be 78.4%. Moreover, in the data set on RAW264.7 [2], the inhibition at 5 µg/mL is 57.6%.

As for `O=c1oc2ccc(Cl)cc2cc1-c1ccc(Cl)cc1`, the viability at 24 h, 5 mg/L in data set [1] came to 114%. In the data set with RAW264.7 [2], the inhibition at 5 µg/mL came out at 12.1%.

With `COc1ccc(-c2cc3ccccc3oc2=O)cc1`, the viability at 24 h, 5 mg/L in data set [1] is 93.4%. Besides, the inhibition at 5 µg/mL in the data set with RAW264.7 [2] came out at 59.6%.

Consider `COc1cc(Br)cc2cc(-c3ccc(F)cc3)c(=O)oc12`, for which the viability at 24 h, 5 mg/L in data set [1] turned out to be 103%. For the same molecule, in the data set with RAW264.7 [2], the inhibition at 5 µg/mL was determined as 33.9%.

For the molecule `COc1ccc(-c2cc3cc(Cl)cc(Cl)c3oc2=O)cc1`, the viability at 24 h, 5 mg/L in data set [1] stood at 99.3%. Moreover, the inhibition at 5 µg/mL in the data set with RAW264.7 [2] amounted to 20.8%.

In the case of `COc1cc(Br)cc2cc(-c3cccnc3)c(=O)oc12`, the viability at 24 h, 5 mg/L in data set [1] came to 84.9%. In addition, the inhibition at 5 µg/mL with RAW264.7 [2] was 58.6%.

Turning to `COc1cc(Br)cc2cc(-c3ccc(O)cc3)c(=O)oc12`, in data set [1], the viability at 24 h, 5 mg/L amounted to 24.4%. Besides, the inhibition at 5 µg/mL in the data set on RAW264.7 [2] amounted to 91.3%.

Take `COc1ccc(-c2cc3cc(Cl)ccc3oc2=O)cc1OC`: the viability at 24 h, 5 mg/L in data set [1] turned out to be 105%. Further, the inhibition at 5 µg/mL with RAW264.7 [2] worked out at 31.2%.

Take `COc1cccc(-c2cc3ccccc3oc2=O)c1`: the viability at 24 h, 5 mg/L in data set [1] was 48.4%. For the same molecule, in the data set with RAW264.7 [2], the inhibition at 5 µg/mL is 49.2%.

`COc1cc(Br)cc2cc(-c3ccc(OC(C)=O)cc3)c(=O)oc12`: the viability at 24 h, 5 mg/L in data set [1] was 61.7%. Also, the inhibition at 5 µg/mL with RAW264.7 [2] stood at 77.8%.

Turning to `COc1cc(Br)cc2cc(-c3cccc(O)c3)c(=O)oc12`, the viability at 24 h, 5 mg/L in data set [1] worked out at 28.5%. In the data set with RAW264.7 [2], the inhibition at 5 µg/mL came to 116%.

For `COc1cccc2cc(-c3ccc(Cl)cc3)c(=O)oc12`, the viability at 24 h, 5 mg/L in data set [1] is 93.5%. For the same molecule, the inhibition at 5 µg/mL in the data set on RAW264.7 [2] is 61.7%.

Regarding `COc1ccc(-c2cc3cc(Cl)ccc3oc2=O)cc1`, in data set [1], the viability at 24 h, 5 mg/L was 102%. For the same molecule, in the data set with RAW264.7 [2], the inhibition at 5 µg/mL came to 47.5%.

On to `COc1ccc(OC)c(-c2cc3cc(Br)cc(OC)c3oc2=O)c1`, for which, in data set [1], the viability at 24 h, 5 mg/L came out at 93.5%. The inhibition at 5 µg/mL in the data set on RAW264.7 [2] is 45.9%.

Regarding `O=c1oc2c(Cl)cc(Cl)cc2cc1-c1ccccc1`, in data set [1], the viability at 24 h, 5 mg/L stood at 104%. In addition, the inhibition at 5 µg/mL in the data set with RAW264.7 [2] came to 53.4%.

Take `O=c1oc2ccccc2cc1-c1ccccc1`: the viability at 24 h, 5 mg/L in data set [1] is 104%. For the same molecule, the inhibition at 5 µg/mL with RAW264.7 [2] came to 69.5%.

In general, IC50 refers to the concentration at which inhibition is half-maximal. With `COc1ccccc1-c1cc2cc(Cl)cc(Cl)c2oc1=O`, the viability at 24 h, 5 mg/L in data set [1] is 119%. For the same molecule, in the data set on RAW264.7 [3], the IC50 came to 8.5 µM. Besides, the inhibition at 5 µg/mL with RAW264.7 [2] stood at 76.9%.

In the case of `COc1cccc(-c2cc3cc(Cl)cc(Cl)c3oc2=O)c1`, the viability at 24 h, 5 mg/L in data set [1] stood at 105%. Also, the inhibition at 5 µg/mL with RAW264.7 [2] amounted to 36%.

For `COc1cccc(-c2cc3cc(Br)cc(OC)c3oc2=O)c1`, in data set [1], the viability at 24 h, 5 mg/L worked out at 116%. The IC50 in the data set with RAW264.7 [3] stood at 6.9 µM. Besides, the inhibition at 5 µg/mL in the data set on RAW264.7 [2] came to 72.3%.

As for `COc1ccc(-c2cc3cccc(OC)c3oc2=O)cc1`, the viability at 24 h, 5 mg/L in data set [1] is 81.3%. In addition, the inhibition at 5 µg/mL with RAW264.7 [2] is 44.6%.

Consider `COc1cc(-c2cc3cc(Br)cc(OC)c3oc2=O)cc(OC)c1OC`, for which the viability at 24 h, 5 mg/L in data set [1] amounted to 115%. Further, in the data set on RAW264.7 [2], the inhibition at 5 µg/mL stood at 47.3%.

Take `COc1cc(Br)cc2cc(-c3ccccc3)c(=O)oc12`: in data set [1], the viability at 24 h, 5 mg/L was determined as 29.6%. Moreover, the inhibition at 5 µg/mL in the data set with RAW264.7 [2] turned out to be 111%.

Regarding `COc1ccc(-c2cc3cc(Br)cc(OC)c3oc2=O)cc1OC`, the viability at 24 h, 5 mg/L in data set [1] worked out at 98%. Moreover, the inhibition at 5 µg/mL with RAW264.7 [2] was 53.5%.

With `COc1ccccc1-c1cc2cc(Cl)ccc2oc1=O`, in data set [1], the viability at 24 h, 5 mg/L came out at 115%. Further, the inhibition at 5 µg/mL with RAW264.7 [2] was determined as 65.7%.

Take `COc1ccc(-c2cc3cc(Br)cc(OC)c3oc2=O)cc1`: the viability at 24 h, 5 mg/L in data set [1] was 99.9%. The inhibition at 5 µg/mL in the data set with RAW264.7 [2] amounted to 44.2%.

With `O=c1oc2ccccc2cc1-c1ccc(F)cc1`, in data set [1], the viability at 24 h, 5 mg/L was 110%. Also, the inhibition at 5 µg/mL in the data set with RAW264.7 [2] was found to be 9.98%.

As for `COc1ccc(-c2cc3cccc(OC)c3oc2=O)cc1OC`, the viability at 24 h, 5 mg/L in data set [1] was 87.7%. Also, the inhibition at 5 µg/mL with RAW264.7 [2] was found to be 32.3%.

`COc1cc(Br)cc2cc(-c3cccc(OC(C)=O)c3)c(=O)oc12`: the viability at 24 h, 5 mg/L in data set [1] stood at 66.5%. Also, the inhibition at 5 µg/mL in the data set with RAW264.7 [2] came out at 84.1%.

As to `COc1cccc2cc(-c3ccccc3)c(=O)oc12`, the viability at 24 h, 5 mg/L in data set [1] amounted to 64.5%. The inhibition at 5 µg/mL in the data set with RAW264.7 [2] stood at 78.4%.

With `COc1ccc(-c2cc3cc(Cl)cc(Cl)c3oc2=O)cc1OC`, the viability at 24 h, 5 mg/L in data set [1] was found to be 118%. For the same molecule, in the data set with RAW264.7 [2], the inhibition at 5 µg/mL came out at 27.3%.

As for `COc1cc(-c2cc3cccc(OC)c3oc2=O)cc(OC)c1OC`, the viability at 24 h, 5 mg/L in data set [1] came to 54.4%. Further, the inhibition at 5 µg/mL in the data set on RAW264.7 [2] was 52%.

As to `COc1cccc2cc(-c3ccc(F)cc3)c(=O)oc12`, the viability at 24 h, 5 mg/L in data set [1] worked out at 127%. The inhibition at 5 µg/mL in the data set on RAW264.7 [2] came to 47.6%.

Turning to `COc1cccc(-c2cc3cccc(OC)c3oc2=O)c1`, the viability at 24 h, 5 mg/L in data set [1] turned out to be 34.2%. Moreover, the inhibition at 5 µg/mL with RAW264.7 [2] amounted to 91.4%.

In the case of `COc1cc(/C=C/C(=O)CC(=O)/C=C/c2ccc(O)c(OC)c2)ccc1O` [CURCUMIN], the IC50 with RAW264.7 [3] came out at 6.2 µM. For the same molecule, the inhibition at 5 µg/mL in the data set on RAW264.7 [2] amounted to 77%.

For the molecule `COc1ccccc1-c1cc2cc(Br)cc(OC)c2oc1=O`, the viability at 24 h, 5 mg/L in data set [1] came to 95.7%. In addition, the inhibition at 5 µg/mL in the data set with RAW264.7 [2] came to 47.6%.

`COc1ccc(-c2cc3ccccc3oc2=O)cc1OC`: the viability at 24 h, 5 mg/L in data set [1] was determined as 47%. Moreover, in the data set with RAW264.7 [2], the inhibition at 5 µg/mL came out at 47.4%.
